Assay results as given in publication PMC8041276 (ACS Chemical Neuroscience, 2021).

Key:
[1] = system: scopolamine-induced cognitive impairment; test: Novel object recognition (NOR) test under scopolamine-induced memory decline; format: in vivo, male Sprague-Dawley rats; conditions: rats, scopolamine 1.25 mg/kg ip
Protocol: The experiments were conducted in accordance with the NIH Guide for the Care and Use of Laboratory Animals and were approved by the II Local Ethics Committee for Animal Experiments, Maj Institute of Pharmacology. Male […] Sprague-Dawley rats (Charles River, Germany) weighing ∼250 g at the arrival were housed in the standard laboratory cages, under standard colony A/C controlled conditions: room temperature 21 ± 2 °C, humidity (40–50%), 12 h light/dark cycle (lights on, 06:00) with ad libitum access to food (unless stated otherwise) and water. Rats were allowed to acclimatize for at least 7 days before the start of the experimental procedure. During this week animals were handled at least 3 times. Behavioral testing was carried out during the light phase of the light/dark cycle. […]
The procedure consisted of habituation to the arena (without any objects) for 5 min, 24 h before the test, and test session comprised two trials separated by an inter trial interval (ITI). […] Exploration time of the objects and the distance traveled were measured using the Any-maze video tracking system. On the basis of exploration time (E) of two objects during T2, discrimination index (DI) was calculated according to the formula: DI = (EB – EA)/(EA + […]).
Data were analyzed using one-way ANOVA with treatment as between-subject factor. […]

[2] = target: T1, CYP3A4 (Homo sapiens, UniProt P08684); test: CYP3A4 P450-Glo luminescent inhibition assay; format: in vitro ADME; conditions: 0.01–25 μM
T1 construct: purchased Promega (Madison, WI, USA)
T1 sequence (P08684 whole entry): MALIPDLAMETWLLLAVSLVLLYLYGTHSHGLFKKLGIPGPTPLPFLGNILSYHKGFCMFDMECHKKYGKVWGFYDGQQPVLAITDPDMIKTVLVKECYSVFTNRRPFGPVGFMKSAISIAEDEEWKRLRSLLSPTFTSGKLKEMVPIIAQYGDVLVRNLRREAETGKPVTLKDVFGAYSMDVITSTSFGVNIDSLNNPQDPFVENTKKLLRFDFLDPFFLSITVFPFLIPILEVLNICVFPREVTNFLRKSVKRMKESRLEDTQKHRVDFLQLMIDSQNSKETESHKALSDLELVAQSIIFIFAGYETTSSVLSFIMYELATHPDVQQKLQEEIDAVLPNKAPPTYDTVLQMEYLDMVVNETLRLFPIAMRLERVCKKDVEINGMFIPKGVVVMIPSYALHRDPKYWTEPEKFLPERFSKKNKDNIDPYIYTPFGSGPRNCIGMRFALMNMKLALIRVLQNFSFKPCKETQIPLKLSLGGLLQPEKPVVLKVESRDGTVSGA
Description: The luminescent CYP3A4 P450-Glo and CYP2D6 P450-Glo assays and protocols were provided by Promega (Madison, WI, USA). The P450-Glo systems based on the conversion proluciferins, derivatives of beetle luciferin [(4S)-4,5-dihydro-2-(6′-hydroxy-2′-benzothiazolyl)-4-thiazolecarboxylic acid] into D-luciferin were catalyzed by respective CYP isoform. D-Luciferin is formed and detected in a second reaction with the luciferin detection reagent (LDR). The amount of light produced in the second reaction is proportional to CYP activity.
The stock solutions (10 mM) of the references ketoconazole (KE), quinidine (QD), and examined compounds were performed in DMSO. The 4× concentrated dilutions were prepared before the assays. […]
The CYPs, proluciferin, and examined compounds (25 μL/well) were preincubated first for 5 min, and next the NADPH regeneration system was added (25 μL) to start the reaction. […] The control reactions for measuring the 100% of CYPs activity and minus-CYP negative control reactions for measure background luminescence were also prepared. […] Finally, LDR was added (50 μL/well), and after 20 min of incubation in room temperature the luminescence signal was measured with a microplate reader (EnSpire, PerkinElmer) in luminescence mode. […] The IC50 values and were calculated using GraphPad Prism 5 software.

With `O=C(N[C@@H]1CCNC1)c1ccn(S(=O)(=O)c2cccc(Cl)c2)c1-c1ccc(F)cc1` [Compound 27, (R)-2-(4-Fluorophenyl)-1-[(3-chlorophenyl)sulfonyl]-N-(pyrrolidin-3-yl)-1H-pyrrole-3-carboxamide] the “effect on scopolamine-induced cognitive deficits (discrimination index)” value ([1]; 3 mg/kg p.o.) was “not 3 mg/kg, prevented scopolamine-induced cognitive deficits”, the “effect on scopolamine-induced cognitive deficits (discrimination index)” value ([1]; 6 mg/kg p.o.) was “prevented scopolamine-induced cognitive deficits” and the IC50 [2] was 0.069 µM.
